“Also recorded” adds a separate entry of the source.
Tests used:
[1] = system: mouse intestinal organoid models of colorectal cancer; experiment: Subcutaneous AKP organoid tumors in immunodeficient mice, tumor volume; assay type: in vivo; conditions: G6pdx-deficient (shG6pdx) organoid tumors, asparaginase 1,000 U/kg
Text: Left panel, Mouse intestinal organoids with Apc deficiency, Kras activating mutations, and Tp53 loss (so-called AKP organoids) were transduced with two distinct control shRNAs (shGFP and shLuciferase), or two distinct shRNAs targeting G6pdx (the mouse G6PD gene). Knockdown of G6pdx protein expression was confirmed by Western blot analysis.
Organoids were transduced with control (shLuc) and two distinct shG6pdx-targeting shRNAs (see FIG. 10), and injected subcutaneously into immunodeficient mice. After engraftment of tumors (defined as tumors reaching a volume of 150 mm3), mice were treated with vehicle (phosphate-buffered saline, PBS) or asparaginase (1,000 U/kg), and tumor volumes were followed. Asparaginase or PBS were re-dosed at the time points indicated by the black arrows.

[2] = system: NADP/NADPH ratio in HCT-15 G6PD knock-out cells; experiment: NADP/NADPH ratio by liquid chromatography/mass spectrometry in G6PD knock-out clones; assay type: cell-based, human; conditions: HCT-15 G6PD knock-out clones #1 and #2, asparaginase 500 U/L
Protocol: HCT-15 cells that were either G6PD wild-type (WT) parental cells, or G6PD knock-out clones #1 and #2, were treated by vehicle or asparaginase (500 U/L). NADP/NADPH ratio was measured by liquid chromatography/mass spectrometry, and levels are shown normalized to those in HCT-15 cells with no-asparaginase controls.

[3] = system: HCT-15 colorectal cancer cells; experiment: Relative viability of HCT-15 cells with CRISPR interference of RPIA and RPE, treated with asparaginase; assay type: cell-based, human; conditions: HCT-15 with dCas9-KRAB and guide RNAs targeting RPIA and RPE promoters
Protocol: HCT-15 colorectal cancer cells were transduced with a so-called CRISPR interference system, consisting of a dCas9-KRAB expression construct and guide RNAs targeting the promoters of RPIA and RPE, to inhibit expression of these enzymes. Cells were then treated with vehicle or asparaginase at the indicated doses. Relative viability was assessed by counting viable cells based on trypan blue vital dye staining, with cell counts normalized to those in cells with no-asparaginase controls.

[4] = system: ROS levels in HCT-15 cells; experiment: Reactive oxygen species levels, Cellular ROS Assay Kit; assay type: cell-based, human; conditions: G6PD deficient (shG6PD #1 and #2) HCT-15 cells, indicated doses
Protocol: HCT-15 cells were transduced with negative control shRNA (shLuciferase, shLuc) or with two distinct G6PD-targeting shRNAs (shG6PD #1 and #2), treated with asparaginase at the indicated doses, and reactive oxygen species (ROS) levels were assessed using the Cellular ROS Assay Kit (Abcam, product number ab113851) in shLuc (control). ROS levels were measured by fluorescence microplate reader, and were normalized to those in shLuc-transduced, no-asparaginase controls. […] Results are shown as means±SEM; n=3. ****P<0.0001.

[5] = system: HCT-15 colorectal cancer cell line; experiment: Relative viability of G6PD knock-out HCT-15 clones treated with asparaginase; assay type: cell-based, human; conditions: G6PD knock-out (KO) clones of HCT-15 versus wild-type
Protocol: FIG. 5a, Western blot analysis of G6PD protein expression levels in parental HCT-15 cells (G6PD wild-type) and two distinct G6PD knock-out (KO) clones generated by CRISPR-Cas9 induced gene deletion. FIG. 5b, control (G6PD wild-type) or G6PD knockout (KO) clones of the HCT-15 colorectal cancer cell line were treated with asparaginase at the indicated doses, and relative cell viability was assessed by counting the number of live cells based on trypan blue vital dye staining, with cell counts normalized to those in cells with no-asparaginase controls.

[6] = system: NADP/NADPH ratio in HCT-15 cells; experiment: NADP/NADPH ratio, NADP/NADPH Assay Kit (colorimetric, OD 450 nm); assay type: cell-based, human
Protocol: FIG. 8a, HCT-15 cells were transduced with the indicated shRNAs and with the indicated doses of asparaginase, and the ratio of NADP to NADPH was measured using the NADP/NADPH Assay Kit (abcam product #ab65349). Relative NADP/NADPH ratio was assessed by microplate reader based on colorimetric signals (OD 450 nm), with colorimetric signal normalized to those in shLuc cells with no-asparaginase controls. FIG. 8b, the colorectal cancer cell line HCT-15 was treated with vehicle, asparaginase (500 U/L), G6PDi-1 (30 μM) or combination treatment. […] was measured by NADP/NADPH Assay Kit (ab65349) in indicated cells. Relative NADP/NADPH ratio was assessed by microplate reader based on colorimetric signals (OD 450 nm), with colorimetric signal normalized to those in shLuc cells with no-asparaginase controls.

[7] = system: Apc-deficient organoids with mutations of Tp53 and Kras; experiment: Organoid viability (counting viable organoids); assay type: cell-based, mouse; conditions: 500 U/L asparaginase + 100 μM G6PDi-1, basal medium
Protocol: FIG. 4a Apc-deficient organoids with mutations of Tp53 and Kras were cultured in basal medium and treated with vehicle, asparaginase (500 U/L), G6PDi-1 (100 μM), or combo (500 U/L asparaginase+100 μM G6PDi-1). FIG. 4b Viability of organoids from FIG. 4a was assessed by counting viable organoids. Data is relative to vehicle treatment group.

[8] = system: colorectal cancer cell lines HCT-15 and HT-29; experiment: Relative viability (trypan blue viable cell counts) with G6PDi-1 plus asparaginase; assay type: cell-based, human; conditions: G6PDi-1 30 μM with indicated doses of asparaginase
Protocol: (§1) FIG. 3a colorectal cell lines, HCT-15 and HT-29 were treated with small molecule inhibitor G6PDi at the indicated concentrations and activity of G6PD was assessed. FIGS. 3b-3c Colorectal cancer cell lines, HCT-15 (FIG. 3b) and […] (FIG. 3c) were treated with vehicle or G6PDi-1 (30 μM) and with the indicated doses of asparaginase. Relative viability was assessed by counting viable cells based on trypan blue vital dye staining, with cell counts normalized to those in cells with no-asparaginase controls.

G6PD = target: T1, G6PD (Homo sapiens, UniProt P11413); experiment: G6PD activity assay in colorectal cell lines treated with G6PDi; assay type: cell-based; conditions: HCT-15 and HT-29 treated with G6PDi at the indicated concentrations
T1 construct: endogenous in cells; host or cells: HCT-15 and HT-29 colorectal cancer cell lines
T1 sequence (P11413 whole entry): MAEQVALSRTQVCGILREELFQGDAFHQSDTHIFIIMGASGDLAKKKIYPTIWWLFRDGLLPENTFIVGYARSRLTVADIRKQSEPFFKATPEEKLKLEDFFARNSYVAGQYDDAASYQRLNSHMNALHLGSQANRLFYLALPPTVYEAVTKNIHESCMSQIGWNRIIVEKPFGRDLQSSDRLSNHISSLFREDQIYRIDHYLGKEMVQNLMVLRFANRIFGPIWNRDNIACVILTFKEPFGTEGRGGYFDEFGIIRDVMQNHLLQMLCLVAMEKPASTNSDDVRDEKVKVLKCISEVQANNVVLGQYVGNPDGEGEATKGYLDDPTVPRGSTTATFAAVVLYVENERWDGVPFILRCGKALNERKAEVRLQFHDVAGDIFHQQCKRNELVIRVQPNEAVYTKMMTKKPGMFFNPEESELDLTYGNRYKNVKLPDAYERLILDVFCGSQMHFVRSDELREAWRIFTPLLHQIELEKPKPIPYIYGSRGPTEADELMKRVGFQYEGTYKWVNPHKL
Protocol: as §1

G6PD activity (G6PD)	Substance	tumor volume / therapeutic activity [1]	NADP/NADPH ratio on asparaginase treatment (LC/MS) [2]	relative viability on asparaginase treatment [3]	reactive oxygen species levels on asparaginase treatment [4]	asparaginase sensitivity (relative cell viability) [5]	relative NADP/NADPH ratio on asparaginase treatment ([6]; HCT-15 cells depleted of G6PD (shRNA or G6PDi-1 30 μM), asparaginase 500 U/L or indicated doses)	asparaginase sensitivity in organoids (viable organoids relative to vehicle) [7]	sensitivity to asparaginase (relative viability) [8]	relative NADP/NADPH ratio on G6PD inhibition ([6]; HCT-15 cells, G6PDi-1 30 μM)
	asparaginase	tumor volumes were reduced; also recorded: significant therapeutic activity	further increase of NADP/NADPH ratio	None of the differences were statistically significant	not further elevated	induces asparaginase sensitivity	further increased the NADP/NADPH ratio; also recorded: further increase of NADP/NADPH ratio			
reduce G6PD activity	G6PDi-1							induce asparaginase sensitivity	induce sensitivity to asparaginase	increased

Source: US20240024436A1, “METHOD FOR TREATING CANCER” (CHILDREN'S MEDICAL CENTER CORPORATION, priority 2022, published 2024)
